According to publication PMC12419922, “Myristoylated Cathelicidin-DM Fused With ANG1-7: A Novel Self-Assembling Antimicrobial Peptide for the Treatment and Mechanism of Diabetic Infected Wounds” (Journal of Diabetes Research, 2025):
Where a SMILES comes first, the peptide text is derived from it.

How the values were obtained:
[1] = tested on: PI3K/AKT/eNOS signaling pathway, MasR in HUVECs; test: Western blot of PI3K/AKT/eNOS signaling pathway and MasR; type: cell-based, human; details: inhibitor group
Method: After the specified treatments, HUVECs were harvested using a cell scraper and lysed in cell lysis buffer (Wuhan Boster Biological Engineering Co., Ltd.) for 30 min at 4°C. Total protein was quantified using a BCA protein assay kit. Lysate (20 μg) from each sample was separated by 10% sodium dodecyl sulfate–polyacrylamide gel electrophoresis (SDS-PAGE) and then transferred to a polyvinylidene fluoride (PVDF) membrane. The membrane was blocked with a fresh blocking buffer containing 5% skim milk in Tris-buffered saline with 0.1% Tween 20 (TBS-T) for 2 h at room temperature and then incubated with primary antibodies against AKT (1:1000 dilution, #4691, Cell Signaling Technology), p-AKT (1:2000 dilution, #4060, Cell Signaling Technology), PI3K (1:1000 dilution, ab191606, Abcam), p-PI3K (1:1000 dilution, ab278545, Abcam), eNOS (1:1000 dilution, #32027, Cell Signaling Technology), p-eNOS (1:1000 dilution, ab215717, Abcam), and Mas (1:1000 dilution, #85003-1-RR, Proteintech) overnight at 4°C with shaking. The membrane was washed with TBS-T for 15 min and then incubated with horseradish peroxidase (HRP)–conjugated goat anti-rabbit secondary antibody (Wuhan Sanying Biotechnology Co., Ltd.) at a 1:2000 dilution in TBS-T and 3% skim milk for 90 min at room temperature. The membrane was washed three times with TBS-T, each for 15 min, and the immune reaction signals were detected using an ECL detection method. Protein bands were detected using a chemiluminescent gel imaging system (Bio-Rad Lab, China). Protein expression was quantitatively analyzed using ImageJ software (National Institutes of Health, Bethesda, MD, United States), and the experiment was repeated three times.

[2] = tested on: HUVECs; test: NO secretion, Griess reaction; type: cell-based, human; details: HG + LPS (HG + LPS 0.5 times the original level), n = 3
Method: NO levels were determined using the Griess reaction. Briefly, 100 μL of cell culture supernatant was mixed with an equal volume of Griess reagent and incubated at room temperature in the dark for 30 min. The absorbance of the reaction mixture was measured at 540 nm using a microplate reader. Sodium nitrite (NaNO2) was used as a standard to generate a calibration curve, and the NO concentration in the samples was calculated accordingly. All experiments were independently performed in triplicate to ensure data reliability and reproducibility.

[3] = tested on: HUVECs; test: Scratch wound healing assay; type: cell-based, human; details: HG + LPS, 20 μg/mL, n = 3; for wound healing rate (scratch assay): after 12 h; for healing area (scratch assay): at 48 h
Method: In a 6-well plate, HUVECs (2 × 10^5 cells/well) were seeded. The cells were starved in serum-free medium for 12 h, and then, a scratch was made vertically using a 200-μL pipette tip. […]

[4] = tested on: S. aureus (ATCC 25923) infected diabetic wound; test: Diabetic mouse S. aureus-infected full-thickness skin wound model; details: for wound healing rate: 7th day, 20 μg/mL in PBS, 200 μL subcutaneously for 3 days, n = 4
Method: BALB/c male mice are from the Experimental Animal Center of Air Force Military Medical University. One group was fed a normal diet, and the other five groups were fed a high-fat diet for 4 weeks and then injected with 35 mg/kg streptozotocin (STZ, 35 mg/kg, Sigma) intraperitoneally for 3 days. […] After intraperitoneal injection of pentobarbital sodium (1%, […]), the dorsal hair of each animal was shaved off, and a circular full-thickness skin wound was created on the back using a 10-mm sterile mouse punch. S. aureus (ATCC 25923) was used to infect the wound site of mice, and a full-thickness wound infection model of mice was established. S. aureus was first resuscitated by operation in a biological ultra-clean table. A single colony was picked and incubated in LB medium at 37°C and 200 rpm. The concentration of the above S. aureus solution was adjusted to 1 × 10^8 CFU/mL to infect the wound of mice. Then, 24 h after S. aureus infection, three drugs, DM (20 μg/mL), ANG1-7 (20 μg/mL), and MYR-DM-ANG1-7 (20 μg/mL), were dissolved in PBS buffer, and 200 μL was injected subcutaneously for 3 days. After drug injection, the wound pus was diluted and coated with plate culture to observe the colony situation. The gross specimen imaging system (GF-7A, China) was used to record the wounds of mice on the same day and every other day after the formation of the wounds. The rubber ring with adhesive backing was used to fix the wound and prevent it from shrinking. ImageJ analysis software (NIH, Bethesda, MD, United States) was used to calculate and analyze the wound area. After 0, 3, 7, 10, and 14 days, the size of the infected wound was evaluated by rubber ring. The wound closure was measured as follows: the wound healing rate (%) = [W0 − Wn]/W0 × 100%, where W0 and Wn represent the wound area on the 0th and nth days, respectively (n = 4).
On the 14th day, the skin tissue was fixed in 4% paraformaldehyde solution, dehydrated, embedded in paraffin, sliced, and stained with hematoxylin–eosin (HE) and Masson. Skin tissue sections on Day 7 were immunofluorescently stained using rabbit anti-mouse CD31 (Cell Signaling Technology) and α-SMA (Cell Signaling Technology), and all stained sections were observed under the slide scanner (Aperio AT 2; Leica Biosystems, Germany).

[5] = tested on: HUVECs; test: Tube formation (angiogenesis) on Matrigel; type: cell-based, human; details: 9 h, n = 3
Method: The formation of vascular structure was observed by matrix glue experiment, and the angiogenesis ability was evaluated in Matrigel stent (Corning, New York). After treatment in each group, 300 μL (2 × 10^5 cells/mL) HUVECs were digested and inoculated into a 24-well plate containing Matrigel scaffold. After 9 h, the formation image of the tube was photographed.

[6] = tested on: HUVECs; test: MDA, thiobarbituric acid method; type: cell-based, human; details: HUVEC supernatant, HG + LPS (HG + LPS increased by 1.65 times); n = 3
Method: The level of MDA was determined by the thiobarbituric acid (TBA) method. Briefly, 100 μL of cell supernatant was mixed with 200 μL of a 10% trichloroacetic acid solution of 0.67% TBA. The mixture was incubated at 95°C for 30 min, cooled on ice, and centrifuged at 12,000 × g at 4°C for 10 min. The absorbance of the supernatant was measured at 532 nm using an enzyme-labeled instrument. The experiments were repeated three times.

| Compound | increase in p-PI3K, p-AKT, and p-eNOS levels [1] | NO secretion in cell supernatant, increases to [2] | wound healing rate (scratch assay) [3] | healing area (scratch assay) [3] | wound healing rate [4] | main connections of formed blood vessels ([5]; HG + LPS (HG + LPS group 0.3 times)) | secretion of MDA, decreased by [6] | fluorescence intensity of α-SMA ([4]; seventh day, vs the diabetes infection group, p < 0.01) | length of formed blood vessels ([5]; HG + LPS (HG + LPS group 0.4 times)) | secretion of MDA, increased by [6] |
| --- | --- | --- | --- | --- | --- | --- | --- | --- | --- | --- |
| O=c1cc(N2CCOCC2)oc2c(-c3ccccc3)cccc12 [LY294002, reference compound] | significantly inhibited |  |  |  |  |  |  |  |  |  |
| DRVYIH [ANG1-7, angiotensin 1-7] |  | 1.65 times | 44.7% | 72.06% | 40.69% | 1.4 times | 0.56 times |  |  |  |
| CC[C@H](C)[C@H](NC(=O)[C@H](CC(C)C)NC(=O)[C@@H](NC(=O)[C@H](Cc1ccc(O)cc1)NC(=O)CNC(=O)CNC(=O)[C@H](CCCNC(=N)N)NC(=O)[C@H](CC(C)C)NC(=O)[C@H](CCCCN)NC(=O)[C@H](CC(C)C)NC(=O)[C@H](CCCCN)NC(=O)[C@H](CS)NC(=O)[C@H](CC(C)C)NC(=O)[C@H](Cc1c[nH]c2ccccc12)NC(=O)CNC(=O)[C@H](CCCCN)NC(=O)[C@H](CS)NC(=O)[C@@H]1CCCN1C(=O)[C@H](CCCCN)NC(=O)[C@H](CCCNC(=N)N)NC(=O)[C@H](CCCNC(=N)N)NC(=O)[C@H](CO)NC(=O)[C@@H](N)CO)[C@@H](C)O)C(=O)NCC(=O)N[C@@H](CO)C(=O)N[C@@H](C)C(=O)N[C@H](C(=O)N[C@@H](CC(N)=O)C(=O)N[C@@H](CC(C)C)C(=O)N[C@@H](CC(N)=O)C(=O)N[C@@H](CCCNC(=N)N)C(=O)N1CCC[C@H]1C(=O)N[C@H](C(=O)N[C@@H](Cc1ccc(O)cc1)C(=O)N[C@H](C(=O)N[C@@H](CCCNC(=N)N)C(=O)N[C@@H](C)C(=O)O)C(C)C)[C@@H](C)O)[C@@H](C)O [DM, cathelicidin-DM] (H-SSRRKPCKGWLCKLKLRGGYTLIGSATNLNRPTYVRA-OH; N-terminus and C-terminus assumed) |  | 1.2 times | 25.2% | 52.6% | 69.86% |  |  | significantly higher | 1.3 times | 1.2 times |
